# Test system: ticks (Amblyomma americanum)
# Experiment: Surrogate Animal bioassay, topical exposure on rats
# Format: in vivo
# Settings: formulated in ethanol, 48 h
# Description: Surrogate Animal bioassay/ticks(Amblyomma americanum) and fleas:
# Topical exposure—Test materials are formulated in ethanol or acetone at the desired testing concentrations, typically 6% active ingredient or lower. Either doubling or log-dilutions are performed in ethanol to obtain additional testing concentrations (3.0, 0.3, 0.03, and 0.003 mg/cm^3). A tick containment unit is affixed to the back or adult male or female rats, and 0.05 ml of formulated test material is applied topically to the surface area inside of the containment unit. Materials are allowed to dry overnight, after which time 10 unfed dog tick nymphs are placed into each containment unit. A total of 5 rats are normally used for each test concentration. Ticks are allowed to attach and feed on treated animals for 48 h, after which time containment units are opened and live/dead ticks are enumerated. Rats may be co-infested with adult cat fleas at the time of tick infestation to obtain data for topical insecticide activity using the same animal.
substance,measurement,value
Spinetoram,topical activity against tick nymphs compared to spinosad,equivalent to that of spinosad
